# From patent US20220372585A1, “Sensors for Aromatic Compounds and Methods of Making and Using Same” (Washington University, priority 2021, published 2022)
# Like-named read-outs stand apart in the source and are kept apart here.
# Legend:
# WT TrpR = target: T1, WT TrpR (Escherichia coli, UniProt P0A881); assay: WT TrpR system, repression of GFP expression; assay type: cell-based, E. coli
# T1 construct: trpR (WT); expressed in transfected cells; host or cells: E. coli Nissle 1917 (EcN), genomic trpR knocked out; plasmid pMBA035 (P17-trpR)
# Source text: Among the various aspects of the present disclosure is the provision of systems and methods for detecting aromatic compounds. An aspect of the present disclosure provides for a method of protein engineering (e.g., a regulator protein) comprising: mutagenizing specific amino acids in and around a ligand-binding site of a protein, wherein the mutagenizing enables changes in ligand-protein binding specificity while maintaining protein-DNA interaction and thus downstream gene expression control; and/or linking ligand-protein binding to output response. An aspect of the present disclosure provides for an engineered molecular sensor. […] In some embodiments, the engineered regulator protein or the ligand-protein binding site or a sequence encoding the engineered regulator protein or the ligand-protein binding site of the engineered regulator protein is at least about 80% identical to a WT regulator protein or a WT regulator ligand-protein binding site; or a sequence encoding the engineered regulator protein or ligand binding site thereof is at least about 80% identical to a sequence encoding the WT regulator protein or the WT regulator ligand-protein binding site; or functional fragment thereof, the engineered regulator protein having ligand binding activity. In some embodiments, the engineered molecular sensor is optionally genomically integrated into a microorganism, optionally selected from a probiotic or is a purified cell-free sensor. In some embodiments, the engineered regulator protein or enzyme is an engineered TrpR, TyrR, TynA, or FeaR protein. […] In some embodiments, the engineered regulator protein is an engineered TrpR and is a tryptophan (Trp)-, 5-hydroxytryptophan (5-HTP)-, or tryptamine (Trpta)-specific sensor. In some embodiments, the engineered regulator protein or enzyme is an engineered TrpR, TyrR, TynA, or FeaR, and/or wherein the engineered TrpR, TyrR, TynA, or FeaR comprises at least one mutation to a ligand-protein binding site having specific amino acid binding activity. […]
# TrpR variant OD = target: T2, TrpR variant OD (Escherichia coli, UniProt P0A881, A80L/G78C/I79C/K72S/T83R); assay: TrpR OD variant with synthetic Ptrp promoter, repression of GFP expression; assay type: cell-based, E. coli
# T2 construct: trpR (OD); expressed in transfected cells; host or cells: E. coli Nissle 1917 (EcN), genomic trpR knocked out; plasmid pMBA103 (P17-trpR(OD))
# Source text: (§1) Among the various aspects of the present disclosure is the provision of systems and methods for detecting aromatic compounds. An aspect of the present disclosure provides for a method of protein engineering (e.g., a regulator protein) comprising: mutagenizing specific amino acids in and around a ligand-binding site of a protein, wherein the mutagenizing enables changes in ligand-protein binding specificity while maintaining protein-DNA interaction and thus downstream gene expression control; and/or linking ligand-protein binding to output response. An aspect of the present disclosure provides for an engineered molecular sensor. […] In some embodiments, the engineered regulator protein or the ligand-protein binding site or a sequence encoding the engineered regulator protein or the ligand-protein binding site of the engineered regulator protein is at least about 80% identical to a WT regulator protein or a WT regulator ligand-protein binding site; or a sequence encoding the engineered regulator protein or ligand binding site thereof is at least about 80% identical to a sequence encoding the WT regulator protein or the WT regulator ligand-protein binding site; or functional fragment thereof, the engineered regulator protein having ligand binding activity. […]
# TrpR variant O1 = target: T3, TrpR variant O1 (Escherichia coli, UniProt P0A881, A80R/G78N/I79W/K72S/T83K); assay: TrpR O1 variant with synthetic Ptrp promoter, repression of GFP expression; assay type: cell-based, E. coli
# T3 construct: trpR (O1); expressed in transfected cells; host or cells: E. coli Nissle 1917 (EcN), genomic trpR knocked out; plasmid pMBA173 (P17-trpR(O1))
# Source text: as §1
# TynA-FeaR system = assay: microbe, parasite or virus in culture; conditions: for EC50: Escherichia coli, read-out: KA (half maximal constant)
# Protocol: To develop sensors for aromatic amines, the TynA-FeaR system was first characterized in EcN. A sensor plasmid was constructed, which consisted of constitutively expressed TynA and FeaR from E. coli MG1655, and a reporter plasmid, which consisted of GFP under the control of PtynA (see e.g., FIG. 3B). […] Next, the sensitivity and selectivity to different ligands was characterized.
# For fluorescence-based quantification, single colonies were transferred to 5 mL LB medium (VWR, Radnor, Pa., USA) in 14 mL round bottom tubes and incubated overnight at 250 rpm and 37° C. Unless otherwise specified, experimental cultures were prepared by diluting overnight cultures 100× into 0.6 mL M9 minimal medium supplemented with 1 mM MgSO4, […]), and 2% w/v glycerol as well as the respective ligands (DA, PEA, Tyra, and Trypta) in 2 mL 96-deep well plates. Cultures were grown for 24 h at 37° C. and 250 rpm. After 5 h and 24 h of incubation, samples were obtained from the cultures for flow cytometry analysis.
# Flow cytometry was performed as previously described. Culture samples were collected and diluted to a final OD600 of ˜0.005-0.01 in […] filtered phosphate-buffered saline supplemented with 2 mg/ml kanamycin in 96-well assay microplates (U-bottom, REF-353910 from BD Biosciences, San Jose, Calif., USA). The fluorescence of the samples was measured using a Millipore Guava EasyCyte High Throughput flow cytometer with a 488 nm excitation laser and 512/18 nm emission filter. Cytometry data was gated by forward and side scatter. FlowJo (TreeStar Inc.) was used to obtain the arithmetic mean of the fluorescence distribution. The averages of the arithmetic means were calculated from three biological replicates. The average fluorescence of the non-fluorescent wild-type cell was subtracted from each sample to obtain the final fluorescence (au) values (Equation 2). To obtain the relative fluorescence in FIG. 6A-FIG. 6C, fluorescence values for each variant were normalized to the fluorescence of the wild-type sensor using Equation 3.
# The Hill equation (Equations 4 and 5) was used to fit lines to the fluorescence data. The model was fit to the experimentally collected data by minimizing the root mean square error (RMSE; Equation 6).
# [1] = tested on: G415H TynA with wild-type FeaR; assay type: cell-based, E. coli MG1655; conditions: G415H TynA + wild-type FeaR, pCX008, pCX015
# Protocol: (§2) Flow cytometry was performed as previously described. […] Cytometry data was gated by forward and side scatter.
# G494S TynA and A81S FeaR = assay type: cell-based, E. coli MG1655; conditions: G494S TynA and A81S FeaR; 5 h and 24 h; FIG. 23A-B
# Protocol: as §2
# [2] = tested on: G494S TynA with A81T FeaR; assay type: cell-based, E. coli MG1655; conditions: G494S*; 5 h; FIG. 17A
# Protocol: as §2
# [3] = tested on: G494S TynA with wild-type FeaR; assay type: cell-based, E. coli MG1655; conditions: G494S TynA, wild-type FeaR; 5 h and 24 h; FIG. 18A-B
# Protocol: as §2
# [4] = tested on: wild-type TynA with A81T FeaR; assay type: cell-based, E. coli MG1655; conditions: wild-type TynA; 1 mM, 24 h; FIG. 21
# Protocol: as §2
# [5] = tested on: wild-type TynA with L108T FeaR; assay type: cell-based, E. coli MG1655; conditions: 24 h, FIG. 28B
# Protocol: as §2
# [6] = tested on: wild-type TynA with M83Q FeaR; assay type: cell-based, E. coli MG1655; conditions: 24 h, FIG. 28A
# Protocol: as §2
# [7] = tested on: wild-type TynA with W110C FeaR; assay type: cell-based, E. coli MG1655; conditions: 24 h, FIG. 28D
# Protocol: as §2
# [8] = tested on: wild-type TynA with W110S FeaR; assay type: cell-based, E. coli MG1655; conditions: 24 h, FIG. 28C
# Protocol: as §2
# [9] = tested on: wild-type TynA and A81L FeaR; assay: microbe, parasite or virus in culture; assay type: cell-based, E. coli MG1655; conditions: A81L FeaR; 5 h; FIG. 24
# Protocol: as §2
# [10] = tested on: wild-type TynA with A81P FeaR; assay: microbe, parasite or virus in culture; assay type: cell-based, E. coli MG1655; conditions: A81P FeaR; 5 h and 24 h; FIG. 25A-B
# Protocol: as §2
# [11] = tested on: wild-type TynA with M83N FeaR; assay: PtynA-GFP reporter, wild-type TynA with M83N FeaR (pCX073); assay type: cell-based, E. coli MG1655; conditions: pCX008, pCX073, FIG. 6E, 24 h
# Protocol: as §2
# [12] = tested on: TynA-KP with FeaR-KA I109N; assay: GFP fluorescence from PtynA-MG with TynA-KP and FeaR-KA I109N; assay type: cell-based, Klebsiella aerogenes
# Source text: FIG. 32. […] Sensor system with PtynA-MG, TynA-KP and FeaR-KA was chosen as the wild type (WT) for further directed evolution. TynA-KP was employed to reduce the possible interference from DA during evolution processes. Values and error bars are the average and standard deviation of biological triplicate, respectively.
# FIG. 33A-FIG. 33B. […] The expression of PtynA-MG was regulated by the TynA-KP with FeaR-KA I109N mutant. Points represent experimental data while lines represent the fitted curves. […] Values and error bars are the average and standard deviation of biological triplicate, respectively.
# [13] = Sauerkraut, safe limit; cited from earlier work
# [14] = wild-type TynA and FeaR, pCX008, pHJY022, FIG. 3D, 24 h induction
# [15] = wild-type TynA and FeaR, pCX008, pHJY022, FIG. 14, 5 h induction
# [16] = wild-type TynA + L108T FeaR, pCX008, pCX099
# [17] = wild-type TynA + M83Q FeaR, pCX008, pCX083
# [18] = wild-type TynA + W110C FeaR, pCX008, pCX117
# [19] = wild-type TynA + W110S FeaR, pCX008, pCX116
smiles,measurement,setting,value
"N[C@@H](Cc1c[nH]c2ccccc12)C(=O)O [Trp, tryptophan]",fold repression of GFP expression,WT TrpR,120 fold
same,fold repression,TrpR variant OD,about 5 fold
same,fold repression,TrpR variant O1,about 60 fold
"NCCc1ccc(O)cc1 [Tyramine, tyramine]",EC50,TynA-FeaR system; 5 h,37 µM
same,EC50,TynA-FeaR system; 24 h,77 µM
same,Fmin,TynA-FeaR system; [14],4.4
same,n (Hill coefficient),TynA-FeaR system; [14],5
same,Fmax,TynA-FeaR system; [15],311
same,Fmin,TynA-FeaR system; [15],10.6
same,n (Hill coefficient),TynA-FeaR system; [15],1.6
same,Fmax,"[1]; FIG. 4D, 24 h",226
same,Fmin,"[1]; FIG. 4D, 24 h",0
same,n (Hill coefficient),"[1]; FIG. 4D, 24 h",0.9
same,Fmax,"[1]; FIG. 17B, 5 h",152
same,Fmin,"[1]; FIG. 17B, 5 h",0
same,n (Hill coefficient),"[1]; FIG. 17B, 5 h",0.8
same,response,G494S TynA and A81S FeaR,lack of response
same,response,[2],lack of response
same,response,[3],lack of response
same,effect of the A81T FeaR mutation on the response of the sensor,[4],insignificant impact
same,response,[5]; L108T FeaR,lack of response
same,Fmax,[5]; [16],78
same,Fmin,[5]; [16],1.8
same,n (Hill coefficient),[5]; [16],1.6
same,response,[6]; M83Q FeaR,lack of response
same,Fmax,[6]; [17],55
same,Fmin,[6]; [17],0.4
same,n (Hill coefficient),[6]; [17],8.4
same,response,[7]; W110C FeaR,lack of response
same,Fmax,[7]; [18],148
same,Fmin,[7]; [18],0.9
same,n (Hill coefficient),[7]; [18],9.7
same,response,[8]; W110S FeaR,lack of response
same,Fmax,[8]; [19],127
same,Fmin,[8]; [19],1.5
same,n (Hill coefficient),[8]; [19],9.8
same,response,[9],lack of response
same,response,[10],lack of response
same,Fmax,[11],158
same,Fmin,[11],1.5
same,n (Hill coefficient),[11],12
same,response,"[12]; FeaR-KA I109N, 5 h and 24 h, FIG. 33A-B",lack of response
same,induction of fluorescence,"[12]; I109N variant, 0.5 mM, 24 h, FIG. 32",not
same,Concentration,[13],120 µM
